From US20230085307A1, “PYRIDAZINONE COMPOUND AND HERBICIDE” (NISSAN CHEMICAL CORPORATION, priority 2019, published 2023)

What follows are compounds tested on Japanese bulrush (assay: Test Example 1: herbicidal activity, application before weed generation under submerged conditions (Table 16, symbol B)). Conditions: amount of applied herbicide 320 g/ha.
Format: in vivo, Japanese bulrush (Schoenoplectus juncoides)
How it was run: (§1)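 Submerged Wagner pots (alluvial soil, 4 cm water) sown with weed seeds and planted with 2.5-leaf rice seedlings; emulsifiable concentrate diluted in water applied to water surface on sowing day. Held in greenhouse at 25-30 °C; injury scored 0-5 by herbicidal rate after three weeks.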

SMILES | Herbicidal effect, B: Japanese bulrush
CCCC(=O)Oc1c(C)nn(C)c(=O)c1-c1c(-c2ccc(OC)cc2)sc2cc(F)ccc12 [3-008] | 5 (Herbicidal rate of 90% or more (almost completely withered))
COc1cc(F)ccc1-c1sc2cc(F)ccc2c1-c1c(O)c(C)nn(C)c1=O [3-009] | 3 (Herbicidal rate of 40% or more and less than 70%)

The compounds below were run on oval-leafed pondweed (assay: Test Example 1: herbicidal activity, application before weed generation under submerged conditions (Table 16, symbol C)). Conditions: amount of applied herbicide 320 g/ha.
Format: in vivo, oval-leafed pondweed (Monochoria vaginalis)
How it was run: as §1

SMILES | Herbicidal effect, C: oval-leafed pondweed
CCCC(=O)Oc1c(C)nn(C)c(=O)c1-c1c(-c2ccc(OC)cc2)sc2cc(F)ccc12 [3-008] | 5 (Herbicidal rate of 90% or more (almost completely withered))
COc1cc(F)ccc1-c1sc2cc(F)ccc2c1-c1c(O)c(C)nn(C)c1=O [3-009] | 1 (Herbicidal rate of 5% or more and less than 20%)

These compounds were tested on late watergrass (assay: Test Example 2: herbicidal activity, application during weed generation under submerged conditions (Table 17, symbol A)). Conditions: AAH 320 g/ha; application during weed generation, submerged conditions.
Format: in vivo, late watergrass (Echinochloa oryzicola)
How it was run: (§2)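 Effect on each weed is rated three weeks post-treatment, using the same scoring criteria as the preceding test. Plants grow from mixed-sown seed in flooded alluvial soil (4 cm water) at 25° C. to 30° C., and are treated at one to two leaves with diluted emulsion dropped onto the water.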

SMILES | herbicidal effect rating, A: late watergrass
CCCC(=O)Oc1c(C)nn(C)c(=O)c1-c1c(-c2ccc(OC)cc2)sc2cc(F)ccc12 [3-008] | 0 (Herbicidal rate of 5% or less (almost no effect))
COc1cc(F)ccc1-c1sc2cc(F)ccc2c1-c1c(O)c(C)nn(C)c1=O [3-009] | 0 (Herbicidal rate of 5% or less (almost no effect))

Each compound was assayed on Japanese bulrush (assay: Test Example 2: herbicidal activity, application during weed generation under submerged conditions (Table 17, symbol B)). Conditions: AAH 320 g/ha; application during weed generation, submerged conditions.
Format: in vivo, Japanese bulrush (Schoenoplectus juncoides)
How it was run: as §2

SMILES | herbicidal effect rating, B: Japanese bulrush
CCCC(=O)Oc1c(C)nn(C)c(=O)c1-c1c(-c2ccc(OC)cc2)sc2cc(F)ccc12 [3-008] | 2 (Herbicidal rate of 20% or more and less than 40%)
COc1cc(F)ccc1-c1sc2cc(F)ccc2c1-c1c(O)c(C)nn(C)c1=O [3-009] | 1 (Herbicidal rate of 5% or more and less than 20%)

What follows are compounds tested on rice flat sedge (assay: Test Example 3: herbicidal effect by foliage application, Wagner pot (Table 18, symbol E)). Conditions: amount of applied herbicide 320 g/ha.
Format: in vivo, rice flat sedge (Cyperus iria)
How it was run: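 Plants were sown in alluvial soil held under 0.1–0.5 cm standing water and grown 14 days in a greenhouse at 25–30 °C. An emulsifiable formulation, water-diluted to the set dose, was then sprayed onto the foliage, and effects were scored three weeks later using previously defined criteria.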

SMILES | herbicidal effect on E: rice flat sedge
CCCC(=O)Oc1c(C)nn(C)c(=O)c1-c1c(-c2ccc(OC)cc2)sc2cc(F)ccc12 [3-008] | 5 (Herbicidal rate of 90% or more (almost completely withered))
COc1cc(F)ccc1-c1sc2cc(F)ccc2c1-c1c(O)c(C)nn(C)c1=O [3-009] | 5 (Herbicidal rate of 90% or more (almost completely withered))

What follows are compounds tested on wild oat (assay: Test Example 4: herbicidal effect by soil treatment (Table 19, symbol I)). Conditions: amount of applied herbicide 320 g/ha.
Format: in vivo, wild oat (Avena fatua)
How it was run: (§3)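 Step 1: sow seeds in sterilized diluvial soil, cover ~1.5 cm. Step 2: spray diluted emulsion onto soil surface at predetermined rate. Step 3: greenhouse, 25–30° C, three weeks. Step 4: grade effect on each plant by earlier criteria.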

SMILES | herbicidal effect, I: wild oat
CCCC(=O)Oc1c(C)nn(C)c(=O)c1-c1c(-c2ccc(OC)cc2)sc2cc(F)ccc12 [3-008] | 0 (Herbicidal rate of 5% or less (almost no effect))
COc1cc(F)ccc1-c1sc2cc(F)ccc2c1-c1c(O)c(C)nn(C)c1=O [3-009] | 4 (Herbicidal rate of 70% or more and less than 90%)

Each compound was assayed on Italian ryegrass (assay: Test Example 4: herbicidal effect by soil treatment (Table 19, symbol K)). Conditions: amount of applied herbicide 320 g/ha.
Format: in vivo, Italian ryegrass (Lolium multiflorum)
How it was run: as §3

SMILES | herbicidal effect, K: Italian ryegrass
CCCC(=O)Oc1c(C)nn(C)c(=O)c1-c1c(-c2ccc(OC)cc2)sc2cc(F)ccc12 [3-008] | 0 (Herbicidal rate of 5% or less (almost no effect))
COc1cc(F)ccc1-c1sc2cc(F)ccc2c1-c1c(O)c(C)nn(C)c1=O [3-009] | 4 (Herbicidal rate of 70% or more and less than 90%)

Each compound was assayed on velvetleaf (assay: Test Example 4: herbicidal effect by soil treatment (Table 19, symbol M)). Conditions: amount of applied herbicide 320 g/ha.
Format: in vivo, velvetleaf (Abutilon theophrasti)
How it was run: as §3

SMILES | herbicidal effect, M: velvetleaf
CCCC(=O)Oc1c(C)nn(C)c(=O)c1-c1c(-c2ccc(OC)cc2)sc2cc(F)ccc12 [3-008] | 0 (Herbicidal rate of 5% or less (almost no effect))
COc1cc(F)ccc1-c1sc2cc(F)ccc2c1-c1c(O)c(C)nn(C)c1=O [3-009] | 3 (Herbicidal rate of 40% or more and less than 70%)

The compounds below were run on lambsquarters (assay: Test Example 4: herbicidal effect by soil treatment (Table 19, symbol O)). Conditions: amount of applied herbicide 320 g/ha.
Format: in vivo, lambsquarters (Chenopodium album)
How it was run: as §3

SMILES | herbicidal effect, O: lambsquarters
CCCC(=O)Oc1c(C)nn(C)c(=O)c1-c1c(-c2ccc(OC)cc2)sc2cc(F)ccc12 [3-008] | 5 (Herbicidal rate of 90% or more (almost completely withered))
COc1cc(F)ccc1-c1sc2cc(F)ccc2c1-c1c(O)c(C)nn(C)c1=O [3-009] | 5 (Herbicidal rate of 90% or more (almost completely withered))

Each compound was assayed on persian speedwell (assay: Test Example 4: herbicidal effect by soil treatment (Table 19, symbol R)). Conditions: amount of applied herbicide 320 g/ha.
Format: in vivo, Persian speedwell (Veronica persica)
How it was run: as §3

SMILES | herbicidal effect, R: persian speedwell
CCCC(=O)Oc1c(C)nn(C)c(=O)c1-c1c(-c2ccc(OC)cc2)sc2cc(F)ccc12 [3-008] | 5 (Herbicidal rate of 90% or more (almost completely withered))
COc1cc(F)ccc1-c1sc2cc(F)ccc2c1-c1c(O)c(C)nn(C)c1=O [3-009] | 5 (Herbicidal rate of 90% or more (almost completely withered))

Each compound was assayed on barnyard grass (assay: Test Example 5: herbicidal effect by foliage application, plastic box (Table 20, symbol H)). Conditions: foliage application, 320 g/ha, three weeks after application.
Format: in vivo, barnyard grass (Echinochloa crus-galli)
How it was run: (§4)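 Foliar spray test: emulsion formulation diluted in water to a set application rate, sprayed onto 14-day-old plants raised in diluvial soil at 25° C to 30° C under glass. Both herbicidal effect and crop effect rated visually three weeks later.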

SMILES | H: barnyard grass, herbicidal effect grade
CCCC(=O)Oc1c(C)nn(C)c(=O)c1-c1c(-c2ccc(OC)cc2)sc2cc(F)ccc12 [3-008] | 4 (Herbicidal rate of 70% or more and less than 90%)
COc1cc(F)ccc1-c1sc2cc(F)ccc2c1-c1c(O)c(C)nn(C)c1=O [3-009] | 5 (Herbicidal rate of 90% or more (almost completely withered))

Each compound was assayed on wild oat (assay: Test Example 5: herbicidal effect by foliage application, plastic box (Table 20, symbol I)). Conditions: foliage application, 320 g/ha, three weeks after application.
Format: in vivo, wild oat (Avena fatua)
How it was run: as §4

SMILES | I: wild oat, herbicidal effect grade
CCCC(=O)Oc1c(C)nn(C)c(=O)c1-c1c(-c2ccc(OC)cc2)sc2cc(F)ccc12 [3-008] | 0 (Herbicidal rate of 5% or less (almost no effect))
COc1cc(F)ccc1-c1sc2cc(F)ccc2c1-c1c(O)c(C)nn(C)c1=O [3-009] | 5 (Herbicidal rate of 90% or more (almost completely withered))

Each compound was assayed on Italian ryegrass (assay: Test Example 5: herbicidal effect by foliage application, plastic box (Table 20, symbol K)). Conditions: foliage application, 320 g/ha, three weeks after application.
Format: in vivo, Italian ryegrass (Lolium multiflorum)
How it was run: as §4

SMILES | K: Italian ryegrass, herbicidal effect grade
CCCC(=O)Oc1c(C)nn(C)c(=O)c1-c1c(-c2ccc(OC)cc2)sc2cc(F)ccc12 [3-008] | 3 (Herbicidal rate of 40% or more and less than 70%)
COc1cc(F)ccc1-c1sc2cc(F)ccc2c1-c1c(O)c(C)nn(C)c1=O [3-009] | 5 (Herbicidal rate of 90% or more (almost completely withered))

Each compound was assayed on windgrass (assay: Test Example 5: herbicidal effect by foliage application, plastic box (Table 20, symbol L)). Conditions: foliage application, 320 g/ha, three weeks after application.
Format: in vivo, windgrass (Apera spica-venti)
How it was run: as §4

SMILES | L: windgrass, herbicidal effect grade
CCCC(=O)Oc1c(C)nn(C)c(=O)c1-c1c(-c2ccc(OC)cc2)sc2cc(F)ccc12 [3-008] | 3 (Herbicidal rate of 40% or more and less than 70%)
COc1cc(F)ccc1-c1sc2cc(F)ccc2c1-c1c(O)c(C)nn(C)c1=O [3-009] | 5 (Herbicidal rate of 90% or more (almost completely withered))

What follows are compounds tested on velvetleaf (assay: Test Example 5: herbicidal effect by foliage application, plastic box (Table 20, symbol M)). Conditions: foliage application, 320 g/ha, three weeks after application.
Format: in vivo, velvetleaf (Abutilon theophrasti)
How it was run: as §4

SMILES | M: velvetleaf, herbicidal effect grade
CCCC(=O)Oc1c(C)nn(C)c(=O)c1-c1c(-c2ccc(OC)cc2)sc2cc(F)ccc12 [3-008] | 5 (Herbicidal rate of 90% or more (almost completely withered))
COc1cc(F)ccc1-c1sc2cc(F)ccc2c1-c1c(O)c(C)nn(C)c1=O [3-009] | 5 (Herbicidal rate of 90% or more (almost completely withered))

What follows are compounds tested on lambsquarters (assay: Test Example 5: herbicidal effect by foliage application, plastic box (Table 20, symbol O)). Conditions: foliage application, 320 g/ha, three weeks after application.
Format: in vivo, lambsquarters (Chenopodium album)
How it was run: as §4

SMILES | O: lambsquarters, herbicidal effect grade
CCCC(=O)Oc1c(C)nn(C)c(=O)c1-c1c(-c2ccc(OC)cc2)sc2cc(F)ccc12 [3-008] | 5 (Herbicidal rate of 90% or more (almost completely withered))
COc1cc(F)ccc1-c1sc2cc(F)ccc2c1-c1c(O)c(C)nn(C)c1=O [3-009] | 5 (Herbicidal rate of 90% or more (almost completely withered))

What follows are compounds tested on chickweed (assay: Test Example 5: herbicidal effect by foliage application, plastic box (Table 20, symbol P)). Conditions: foliage application, 320 g/ha, three weeks after application.
Format: in vivo, common chickweed (Stellaria media)
How it was run: as §4

SMILES | P: chickweed, herbicidal effect grade
CCCC(=O)Oc1c(C)nn(C)c(=O)c1-c1c(-c2ccc(OC)cc2)sc2cc(F)ccc12 [3-008] | 5 (Herbicidal rate of 90% or more (almost completely withered))
COc1cc(F)ccc1-c1sc2cc(F)ccc2c1-c1c(O)c(C)nn(C)c1=O [3-009] | 5 (Herbicidal rate of 90% or more (almost completely withered))
